Experimental data taken from ChEMBL document CHEMBL1201862, “PubChem BioAssay data set” (2004).
The source made the active and inactive calls.

Tests used:
BJ [1] = test: BJ-TERT fibroblast viability loss – cell-based, RAS-independent, luminescence, dose response (AID 1933); format: functional; settings: Homo sapiens
[2] = Luminescence Cell-Based Dose Response HTS to Identify Inhibitors of Luciferase Translation or Activity in H4-C Neuroglioblastoma Cells. [Related pubchem assays: 1813 (Primary HTS), 1827 (Project Summary)]; format: functional
[3] = Luminescence Cell-Based Dose Confirmation HTS to Identify Inhibitors of 5'UTR Stem-Loop Driven Alpha-Synuclein mRNA Translation in H4 Neuroglioblastoma Cells. [Related pubchem assays: 1827 (Project Summary), 1813 (Primary HTS)]; format: functional
BJ [4] = test: cells; format: functional, cell-based; settings: Homo sapiens
BJ [5] = test: BJ-TERT-LT-ST fibroblast viability loss – cell-based, RAS-independent, luminescence, dose response (AID 1935); format: functional; settings: Homo sapiens;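 note: BJ fibroblasts immortalized with TERT plus LT and ST oncogenes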
BJ [6] = test: growth inhibition of engineered Ras-driven BJ cells – cell-based, alamar blue fluorescence, cherrypicked samples, dose response (AID 2631); format: functional; settings: Homo sapiens;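 note: confirmatory dose-response assay in RAS-dependent BJ fibroblasts engineered with TERT, LT and ST, with cytotoxicity read by fluorescence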
[7] = Luminescence Cell-Based Dose HTS Response to Identify Inhibitors of 5'UTR Stem-Loop Driven Prion Protein mRNA Translation in H4-C Neuroglioblastoma Cells. [Related pubchem assays (depositor defined):AID1814, AID1827]; format: functional
[8] = Luminescence Cell-Based Dose Response HTS to Identify Activators of Luciferase Translation or Activity in H4-C Neuroglioblastoma Cells. [Related pubchem assays: 1829 (Project Summary), 1814 (Primary HTS)]; format: functional
[9] = Luminescence Cell-Based Dose Response HTS to Identify Inhibitors of 5'UTR Stem-Loop Driven Prion Protein mRNA Translation in H4 Neuroglioblastoma Cells. [Related pubchem assays: 1827 (Project Summary), 1813 (Primary HTS)]; format: functional
[10] = molecular target: T1, Nuclear receptor subfamily 0 group B member 1 (Homo sapiens, UniProt P51843); format: functional, cell-based;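 note: HEK293T cells transfected with SF-1 and DAX-1 plus StAR promoter luciferase reporter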
T1 sequence (P51843 whole entry): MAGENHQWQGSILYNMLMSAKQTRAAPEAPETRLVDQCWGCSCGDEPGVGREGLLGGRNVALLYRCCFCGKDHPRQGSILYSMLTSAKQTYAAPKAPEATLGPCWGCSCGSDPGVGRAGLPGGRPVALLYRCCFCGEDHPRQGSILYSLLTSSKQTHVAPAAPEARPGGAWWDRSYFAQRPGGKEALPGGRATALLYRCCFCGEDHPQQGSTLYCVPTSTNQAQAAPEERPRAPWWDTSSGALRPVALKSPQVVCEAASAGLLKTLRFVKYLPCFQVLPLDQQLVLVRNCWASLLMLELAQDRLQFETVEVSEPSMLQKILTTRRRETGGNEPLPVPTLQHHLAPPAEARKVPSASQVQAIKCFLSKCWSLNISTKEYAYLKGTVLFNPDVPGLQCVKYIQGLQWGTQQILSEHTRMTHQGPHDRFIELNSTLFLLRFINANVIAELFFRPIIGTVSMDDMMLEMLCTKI

cells = format: functional, cell-based
[11] = alpha-synuclein stem-loop luciferase translation blockers – H4 neuroglioma cells, luminescence, confirmation (AID 1988); format: functional, cell-based
[12] = Luminescence Cell-Based Dose Response HTS to Identify Activators of 5'UTR Stem-Loop Driven Prion Protein mRNA Translation in H4-C Neuroglioblastoma Cells. [Related pubchem assays: 1829 (Project Summary), 1814 (Primary HTS)]; format: functional
[13] = DRD fibroblast viability loss – cell-based, non-viral oncogenic, luminescence, dose response (AID 1934); format: functional; settings: Homo sapiens
[14] = molecular target: T2, Tyrosine-protein phosphatase non-receptor type 22 (Homo sapiens, UniProt Q9Y2R2); format: functional
T2 sequence (Q9Y2R2 whole entry): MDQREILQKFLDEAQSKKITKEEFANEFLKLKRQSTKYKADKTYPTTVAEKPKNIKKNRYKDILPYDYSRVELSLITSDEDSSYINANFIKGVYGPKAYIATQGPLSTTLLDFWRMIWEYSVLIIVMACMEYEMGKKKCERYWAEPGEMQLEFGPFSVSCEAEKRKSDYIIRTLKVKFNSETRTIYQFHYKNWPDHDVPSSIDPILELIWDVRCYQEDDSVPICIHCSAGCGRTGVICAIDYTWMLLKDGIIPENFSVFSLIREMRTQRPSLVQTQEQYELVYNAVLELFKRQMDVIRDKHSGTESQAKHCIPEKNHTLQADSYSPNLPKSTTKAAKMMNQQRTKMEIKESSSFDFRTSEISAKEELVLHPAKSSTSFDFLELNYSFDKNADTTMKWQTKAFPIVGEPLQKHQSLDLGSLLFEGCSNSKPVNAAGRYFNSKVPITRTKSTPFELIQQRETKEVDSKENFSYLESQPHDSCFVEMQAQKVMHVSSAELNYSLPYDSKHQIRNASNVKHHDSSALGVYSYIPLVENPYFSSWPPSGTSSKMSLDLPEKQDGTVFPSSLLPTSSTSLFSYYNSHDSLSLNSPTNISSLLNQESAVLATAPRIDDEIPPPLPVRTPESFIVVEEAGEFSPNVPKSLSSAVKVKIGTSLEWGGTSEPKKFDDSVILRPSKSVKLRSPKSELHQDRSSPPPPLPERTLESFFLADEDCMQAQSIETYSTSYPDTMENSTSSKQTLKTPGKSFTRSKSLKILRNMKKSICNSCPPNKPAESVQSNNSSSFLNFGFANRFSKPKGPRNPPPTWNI

[15] = molecular target: Tyrosine-protein phosphatase non-receptor type 7 (Homo sapiens, UniProt P35236); format: functional
Chain of Tyrosine-protein phosphatase non-receptor type 7 (P35236 whole entry): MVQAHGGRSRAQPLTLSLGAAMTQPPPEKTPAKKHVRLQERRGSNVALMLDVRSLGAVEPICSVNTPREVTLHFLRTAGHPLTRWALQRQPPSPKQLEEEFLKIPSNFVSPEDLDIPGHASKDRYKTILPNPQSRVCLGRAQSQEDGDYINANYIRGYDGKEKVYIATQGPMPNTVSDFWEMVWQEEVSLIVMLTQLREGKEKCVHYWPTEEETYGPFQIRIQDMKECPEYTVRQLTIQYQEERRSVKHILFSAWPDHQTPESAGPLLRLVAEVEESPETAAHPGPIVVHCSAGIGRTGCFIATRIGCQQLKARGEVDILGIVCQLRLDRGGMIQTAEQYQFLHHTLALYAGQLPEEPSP

[16] = molecular target: T2, Tyrosine-protein phosphatase non-receptor type 22; format: functional; remark: listed apart in the source
[17] = molecular target: T3, Calpain-2 catalytic subunit (Sus scrofa, UniProt P43367); test: m-calpain protease blockers, concentration series – biochemical, fluorogenic peptide substrate, dose response (AID 1420); format: functional
T3 sequence (P43367 whole entry): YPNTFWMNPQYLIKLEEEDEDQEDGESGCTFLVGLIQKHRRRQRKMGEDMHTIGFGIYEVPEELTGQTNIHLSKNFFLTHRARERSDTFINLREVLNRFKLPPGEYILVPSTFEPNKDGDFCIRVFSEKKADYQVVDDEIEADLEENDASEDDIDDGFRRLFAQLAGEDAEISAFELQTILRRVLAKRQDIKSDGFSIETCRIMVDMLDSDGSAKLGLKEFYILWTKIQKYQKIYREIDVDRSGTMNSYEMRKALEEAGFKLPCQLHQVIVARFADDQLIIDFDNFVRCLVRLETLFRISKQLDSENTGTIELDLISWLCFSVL

Cannabinoid receptor 1 [18] = molecular target: T4, Cannabinoid receptor 1 (Homo sapiens, UniProt P21554); test: SAR analysis of antagonists of the Cannabinoid Receptor 1 using an Image-Based Assay - Set 2. [Related pubchem assays (depositor defined):AID2013, AID2026]; format: functional
T4 sequence (P21554 whole entry): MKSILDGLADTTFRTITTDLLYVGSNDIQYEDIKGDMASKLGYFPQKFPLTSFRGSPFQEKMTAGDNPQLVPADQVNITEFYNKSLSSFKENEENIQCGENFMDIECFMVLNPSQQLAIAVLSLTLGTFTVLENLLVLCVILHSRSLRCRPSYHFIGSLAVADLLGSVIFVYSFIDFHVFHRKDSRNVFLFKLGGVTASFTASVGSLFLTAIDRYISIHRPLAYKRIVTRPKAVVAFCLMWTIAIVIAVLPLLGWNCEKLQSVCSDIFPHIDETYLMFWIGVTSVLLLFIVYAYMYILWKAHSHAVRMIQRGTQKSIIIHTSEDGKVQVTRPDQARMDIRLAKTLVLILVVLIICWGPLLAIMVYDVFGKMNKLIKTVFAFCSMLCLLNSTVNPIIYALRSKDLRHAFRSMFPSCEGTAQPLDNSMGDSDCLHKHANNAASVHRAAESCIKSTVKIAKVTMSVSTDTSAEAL

[19] = molecular target: T5, G-protein coupled receptor 35 (Homo sapiens, UniProt Q9HC97); test: SAR analysis of Agonists of the GPR35 Receptor using an Image-Based Assay - Set 2. [Related pubchem assays (depositor defined):AID2013, AID2026]; format: functional
T5 sequence (Q9HC97 whole entry): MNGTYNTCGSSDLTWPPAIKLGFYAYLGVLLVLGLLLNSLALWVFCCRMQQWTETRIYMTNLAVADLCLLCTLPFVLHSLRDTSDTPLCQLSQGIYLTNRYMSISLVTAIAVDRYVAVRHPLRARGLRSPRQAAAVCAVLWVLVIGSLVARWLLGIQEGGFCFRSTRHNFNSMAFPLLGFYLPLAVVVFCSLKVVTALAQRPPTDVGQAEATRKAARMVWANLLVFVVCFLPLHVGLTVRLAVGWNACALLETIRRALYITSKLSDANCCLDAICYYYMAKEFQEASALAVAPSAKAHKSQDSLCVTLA

Cannabinoid receptor 2 [20] = molecular target: T6, Cannabinoid receptor 2 (Homo sapiens, UniProt P34972); test: SAR analysis of antagonists of the Cannabinoid Receptor 2 using an Image-Based Assay. [Related pubchem assays (depositor defined):AID2013, AID2026]; format: functional
T6 sequence (P34972 whole entry): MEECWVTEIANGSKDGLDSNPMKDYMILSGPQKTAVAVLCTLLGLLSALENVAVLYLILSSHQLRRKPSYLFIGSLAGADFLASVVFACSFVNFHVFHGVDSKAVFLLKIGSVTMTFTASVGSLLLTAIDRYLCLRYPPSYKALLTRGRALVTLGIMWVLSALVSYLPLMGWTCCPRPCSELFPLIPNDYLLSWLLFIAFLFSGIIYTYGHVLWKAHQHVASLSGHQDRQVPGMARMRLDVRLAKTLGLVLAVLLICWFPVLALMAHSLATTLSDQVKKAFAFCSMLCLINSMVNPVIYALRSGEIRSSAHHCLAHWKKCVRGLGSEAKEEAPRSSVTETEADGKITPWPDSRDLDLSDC

[21] = molecular target: T7, G-protein coupled receptor 55 (Homo sapiens, UniProt Q9Y2T6); test: blockade of LPI-induced GPR55 arrestin translocation – imaging, U2OS, beta-arrestin-GFP, LPI agonist, set 2, SAR follow-up (AID 2820); format: functional
T7 sequence (Q9Y2T6 whole entry): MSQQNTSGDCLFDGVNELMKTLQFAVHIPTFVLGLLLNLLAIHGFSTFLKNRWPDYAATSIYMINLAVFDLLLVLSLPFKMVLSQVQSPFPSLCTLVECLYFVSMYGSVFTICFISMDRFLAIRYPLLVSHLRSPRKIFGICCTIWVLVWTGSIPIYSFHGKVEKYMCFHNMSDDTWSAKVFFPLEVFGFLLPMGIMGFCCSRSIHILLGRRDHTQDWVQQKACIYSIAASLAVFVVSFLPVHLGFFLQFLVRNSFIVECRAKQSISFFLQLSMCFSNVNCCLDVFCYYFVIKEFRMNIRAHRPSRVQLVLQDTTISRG

Cannabinoid receptor 1 [22] = molecular target: T4, Cannabinoid receptor 1; test: SAR analysis of agonists of the Cannabinoid Receptor 1 using an Image-Based Assay - Set 2. [Related pubchem assays (depositor defined):AID2013, AID2026]; format: functional
Mucolipin-3 = Mucolipin-3 (Homo sapiens, UniProt Q8TDD5); test: Dose response cell-based high-throughput screening assay for agonists of the transient receptor potential channel ML3 (TRPML3). [Related pubchem assays: 1526, 1424, 1448 ]; format: functional
Chain of Mucolipin-3 (Q8TDD5 whole entry): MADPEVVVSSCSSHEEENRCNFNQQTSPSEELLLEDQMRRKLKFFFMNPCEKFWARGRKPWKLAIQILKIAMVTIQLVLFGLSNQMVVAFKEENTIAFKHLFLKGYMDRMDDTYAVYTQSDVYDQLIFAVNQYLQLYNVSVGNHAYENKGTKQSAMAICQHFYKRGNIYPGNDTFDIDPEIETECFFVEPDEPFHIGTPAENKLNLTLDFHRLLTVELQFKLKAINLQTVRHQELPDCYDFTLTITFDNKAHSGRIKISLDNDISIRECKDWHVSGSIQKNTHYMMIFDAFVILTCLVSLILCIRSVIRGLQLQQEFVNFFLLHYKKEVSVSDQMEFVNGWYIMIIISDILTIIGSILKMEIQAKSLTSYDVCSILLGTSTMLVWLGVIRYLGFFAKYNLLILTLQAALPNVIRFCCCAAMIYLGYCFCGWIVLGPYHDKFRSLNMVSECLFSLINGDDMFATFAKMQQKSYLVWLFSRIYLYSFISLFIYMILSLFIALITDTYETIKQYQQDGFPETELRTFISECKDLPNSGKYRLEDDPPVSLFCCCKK

[23] = molecular target: T5, G-protein coupled receptor 35; test: SAR analysis of Antagonists of the GPR35 Receptor using an Image-Based Assay - Set 3. [Related pubchem assays (depositor defined):AID2013, AID2026]; format: functional
[24] = molecular target: T7, G-protein coupled receptor 55; test: inhibition of LPI-stimulated GPR55 beta-arrestin translocation – imaging, U2OS, beta-arrestin-GFP, LPI agonist, primary screen (AID 2013); format: functional;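 note: antagonist potency measured as reduced agonist-driven arrestin aggregation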
Ion channel NompC = Ion channel NompC (Danio rerio, UniProt Q7T1G6); test: Fluorescence counterscreen assay for TRPML3 agonists: dose response cell-based high-throughput screening assay to identify agonists of the transient receptor potential channel N1 (TRPN1). [Related pubchem assays: 1526, 1424, 1448 ]; format: functional
Chain of Ion channel NompC (Q7T1G6 whole entry): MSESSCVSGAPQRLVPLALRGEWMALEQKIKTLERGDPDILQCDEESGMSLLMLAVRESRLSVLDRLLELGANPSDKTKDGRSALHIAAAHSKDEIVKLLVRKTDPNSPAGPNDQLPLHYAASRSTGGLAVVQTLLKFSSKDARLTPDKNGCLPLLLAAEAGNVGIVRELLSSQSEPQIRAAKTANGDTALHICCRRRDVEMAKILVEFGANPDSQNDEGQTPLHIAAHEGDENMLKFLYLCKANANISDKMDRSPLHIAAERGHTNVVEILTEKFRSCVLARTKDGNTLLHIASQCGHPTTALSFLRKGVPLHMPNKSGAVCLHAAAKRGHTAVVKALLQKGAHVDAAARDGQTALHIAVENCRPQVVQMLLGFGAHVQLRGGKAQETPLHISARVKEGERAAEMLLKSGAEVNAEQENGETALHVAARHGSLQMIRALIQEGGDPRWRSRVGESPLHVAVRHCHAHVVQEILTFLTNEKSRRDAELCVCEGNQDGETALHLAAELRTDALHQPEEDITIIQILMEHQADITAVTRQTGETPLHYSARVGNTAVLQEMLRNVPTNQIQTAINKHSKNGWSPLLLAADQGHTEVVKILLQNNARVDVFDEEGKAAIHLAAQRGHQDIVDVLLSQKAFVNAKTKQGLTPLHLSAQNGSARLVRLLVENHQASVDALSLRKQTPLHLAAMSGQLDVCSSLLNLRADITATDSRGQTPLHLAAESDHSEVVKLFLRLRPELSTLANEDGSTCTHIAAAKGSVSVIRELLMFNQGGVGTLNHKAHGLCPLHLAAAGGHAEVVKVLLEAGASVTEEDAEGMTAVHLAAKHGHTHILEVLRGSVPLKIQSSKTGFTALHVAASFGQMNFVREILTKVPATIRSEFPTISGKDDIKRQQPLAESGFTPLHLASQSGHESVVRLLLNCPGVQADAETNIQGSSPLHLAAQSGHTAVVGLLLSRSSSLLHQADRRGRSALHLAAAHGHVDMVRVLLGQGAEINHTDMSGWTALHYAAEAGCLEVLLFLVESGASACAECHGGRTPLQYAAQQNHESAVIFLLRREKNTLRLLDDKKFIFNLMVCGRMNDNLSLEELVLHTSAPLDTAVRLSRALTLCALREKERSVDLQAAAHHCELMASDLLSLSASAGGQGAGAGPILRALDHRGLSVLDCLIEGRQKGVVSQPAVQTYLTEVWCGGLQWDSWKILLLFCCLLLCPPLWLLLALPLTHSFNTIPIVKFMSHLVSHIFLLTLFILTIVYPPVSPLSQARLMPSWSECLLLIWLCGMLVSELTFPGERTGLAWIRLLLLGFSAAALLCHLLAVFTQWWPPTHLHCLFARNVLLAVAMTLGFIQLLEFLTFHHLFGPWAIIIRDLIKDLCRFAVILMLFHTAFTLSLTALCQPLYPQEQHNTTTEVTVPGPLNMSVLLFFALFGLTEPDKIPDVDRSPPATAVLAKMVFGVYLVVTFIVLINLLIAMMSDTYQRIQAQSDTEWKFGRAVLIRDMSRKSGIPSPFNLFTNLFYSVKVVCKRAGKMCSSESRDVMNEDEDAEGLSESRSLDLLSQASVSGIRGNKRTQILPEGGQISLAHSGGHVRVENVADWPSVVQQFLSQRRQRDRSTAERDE

Cannabinoid receptor 2 [25] = molecular target: T6, Cannabinoid receptor 2; test: SAR analysis of agonists of the Cannabinoid Receptor 2 using an Image-Based Assay. [Related pubchem assays (depositor defined):AID2013, AID2026]; format: functional

For `CCc1ccc(CNC(=O)Cc2ccc(NC(=O)C3=C(C)OCCS3)cc2)cc1`, the EC50 (BJ [1]) was 7.66 µM (inconclusive), the EC50 [2] was 51.1 µM (active) and the EC50 [3] was > 195 µM (not active). The EC50 (BJ [4]) was 23.3 µM (active), the EC50 (BJ [5]) was 3.01 µM (active) and the EC50 (BJ [6]) was 379 nM (active). The EC50 [7] was 592 nM (active), the EC50 [8] was 51.1 µM (inconclusive) and the EC50 [9] was 104 µM (active). For the same compound, the IC50 [10] was > 67.5 µM (inactive), the IC50 (cells) was > 67.5 µM (inactive) and the EC50 [11] was 899 nM (active). For the same compound, the EC50 [12] was 592 nM (inconclusive) and the EC50 [13] was 10.7 µM (inconclusive).

For `O=C(Nc1ccc(Cl)cc1)c1ccc(OC2CSC2)cc1`, the IC50 [14] was > 79.4 µM (inactive), the IC50 [15] was > 79.4 µM (inactive) and the IC50 [16] was > 79.4 µM (inactive). The IC50 [17] was 16.7 µM (not active).

In the case of `COc1ccc(S(=O)(=O)Nc2ccc(C)cc2)cc1N(C)S(=O)(=O)c1ccc(Cl)cc1`, the IC50 (Cannabinoid receptor 1 [18]) is reported as 5.95 µM (active), the EC50 [19] is reported as > 32 µM (inactive) and the IC50 (Cannabinoid receptor 2 [20]) is reported as > 32 µM (inactive). The IC50 [21] was 992 nM (active), the EC50 (Cannabinoid receptor 1 [22]) was > 32 µM (inactive) and the EC50 (Mucolipin-3) was 6.67 µM (active). For the same compound, the IC50 [23] was > 32 µM (inactive), the IC50 [24] was 1.8 µM (active) and the EC50 (Ion channel NompC) was > 29.9 µM (not active). For the same compound, the EC50 (Cannabinoid receptor 2 [25]) was > 32 µM (inactive).
